# From patent publication US20220145396A1, “METHOD OF IDENTIFYING PATIENTS WITH BORTEZOMIB RESISTANT MULTIPLE MYELOMA AND OTHER BLOOD DISEASES” (Max-Planck-Gesellschaft zur Förderung der Wissenschaften …, priority 2019, published 2022)
# Entries after “also recorded” stand apart in the source; their conditions may differ.
# Tests used:
# [1] = system: KMS-18 T21A mutant cell line; assay: XTT viability assay of KMS-18 multiple myeloma cell line with spontaneous PSMB5 T21A substitution; format: cell-based, human; conditions: KMS-18 T21A mutant cells, heterozygous
# Description: (§1) Cell viability was analyzed using the XTT cell proliferation Kit II (Roche Diagnostics, Basel, Switzerland) according to the manufacturer's instructions. Drug treatment was started 24 h after cell seeding. The absorbance was measured after 72 h of treatment and normalized to the respective untreated control cells.
# KMS-18 and KMS-27 cells, having a wild type PSMB5 locus, were subjected to a 4-week selection on bortezomib without the use of mutagens.
# Resistance of these two mutant cell lines to the different proteasome inhibitors was investigated using the XTT viability assay.
# [2] = system: bortezomib resistant PSMB5 mutant cell lines; assay: XTT cell viability assay of bortezomib resistant PSMB5 mutant clones (AN3-12 mouse haploid embryonic stem cells) treated with proteasome inhibitors; format: cell-based
# Description: AN3-12 mouse haploid embryonic stem cells were cultured as previously described (Elling et al., 2011). In brief, the cells were grown in DMEM high glucose (Sigma-Aldrich, St. Louis, Mo.) supplemented with 15% fetal bovine serum, penicillin/streptomycin, glutamine, non-essential amino acids, sodium pyruvate (all Thermo Fisher Scientific, Waltham, Mass.), β-mercaptoethanol, and Leukemia-Inhibitor Factor (LIF) (both Merck Millipore, Darmstadt, Germany) on non-coated tissue culture plates.
# Chemical mutagenesis was performed as previously described (Horn et al., 2011). In brief, AN3-12 cells were transferred to 15 ml tubes, incubated with 0.1 mg/ml ENU for two hours at room temperature, washed five times with LIF-free medium, and plated on culture dishes. The cells were selected with 25 nM Bortezomib (Selleckchem, Houston, Tex.) for three weeks, starting 24 h after mutagenesis. Resistant clones were transferred to 24-well plates and the Psmb5 locus was analyzed. DNA was extracted (DNA extraction solution, Epicentre, Biotechnologies, Madison, Wis.) and exon 2 or exon 3 of the Psmb5 genewere specifically amplified by PCR using the primers msPSMB5exon2_fwd ([…]), msPSMB5exon2_rev ([…]), msPSMB5exon3_fwd ([…]), and msPSMB5exon3_rev ([…]). The used PSMB5 transcript is PSMB5-202, transcript identification ID ENST00000361611.11, coding sequence: CCDS9584, as available on Ensemble Biomart database. Sanger sequencing was performed at Eurofins Genomics GmbH (Ebersberg, Germany).
# as §1
# [3] = T21 substitutions, 15 nM carfilzomib or 75 nM oprozomib
Structure (SMILES),response in XTT viability assay [1],"resistance in cell viability assay ([2]; 50 nM ixazomib, all bortezomib resistant PSMB5 mutant cell lines)",response in cell viability assay ([2]; T21A substitution),"resistance in cell viability assay ([2]; 15 nM carfilzomib, the different mutants)","response in cell viability assay [2, 3]","response in cell viability assay (clustering, FIG. 12) ([2]; substitutions in positions C63, S130, or Y169)","resistance of mutant cell lines compared to the wildtype control (viability assay) ([2]; 10 nM bortezomib, 72 h, identified Psmb5 mutant clones vs WT)","resistance in cell viability assay ([2]; 75 nM oprozomib, the different mutants)"
CC(C)C[C@H](NC(=O)CNC(=O)c1cc(Cl)ccc1Cl)B(O)O [ixazomib],resistance,resistant,resistance,,,,,
CC(C)C[C@H](NC(=O)[C@H](CCc1ccccc1)NC(=O)CN1CCOCC1)C(=O)N[C@@H](Cc1ccccc1)C(=O)N[C@@H](CC(C)C)C(=O)[C@@]1(C)CO1 [carfilzomib],sensitive,,hypersensitive,varying degrees of resistance; also recorded: highly variable,hypersensitivity,partially maintained response,,
"CC(C)C[C@H](NC(=O)[C@H](Cc1ccccc1)NC(=O)c1cnccn1)B(O)O [bortezomib, [(1R)-3-Methyl-1-[[(2S)-1-oxo-3-phenyl-2-[(pyrazinylcarbonyl)amino]propyl]amino]butyl]boronic acid]",resistance,,resistance,,,,up to 2 fold,
COC[C@H](NC(=O)c1cnc(C)s1)C(=O)N[C@@H](COC)C(=O)N[C@@H](Cc1ccccc1)C(=O)[C@@]1(C)CO1 [oprozomib],sensitive,,hypersensitive,,hypersensitivity,,,varying degrees of resistance; also recorded: highly variable
